Data published in PubChem BioAssay AID1963965 (Molecular Pharmacology Branch, DTP, NCI, 2024).
Blank lines part the entries; values can stand above or below the compound they belong to.

Tested on: 996289-038-R-J1-PDC spheroid viability
Test: Anticancer human tumor 996289-038-R-J1-PDC patient-derived colon adenocarcinoma cell line growth inhibition [PI3K]
Conditions: spheroids with HUVEC and MSC; for IC50: curve of first compound; for viability, T/C: stronger effect = lower value
Outline: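 High-throughput combination screen: PI3K inhibitors crossed with targeted small molecules on complex spheroids of tumor cells, HUVEC and MSCs at 37 degrees C, 5% CO2. Top concentration was at or near clinical Cmax (otherwise 10 microM), with half-log decrements.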

[1] = second compound 0.0316 µM, first compound 0.00316 µM
[2] = second compound 0.0316 µM, first compound 0.01 µM
[3] = second compound 0.0316 µM, first compound 0.0316 µM
[4] = second compound 0.0316 µM, first compound 0.1 µM
[5] = second compound 0.0316 µM, first compound 0.316 µM
[6] = second compound 0.0316 µM, first compound 1 µM
[7] = second compound 0.1 µM, first compound 0.00316 µM
[8] = second compound 0.1 µM, first compound 0.01 µM
[9] = second compound 0.1 µM, first compound 0.0316 µM
[10] = second compound 0.1 µM, first compound 0.1 µM
[11] = second compound 0.1 µM, first compound 0.316 µM
[12] = second compound 0.1 µM, first compound 1 µM
[13] = second compound 0.316 µM, first compound 0.00316 µM
[14] = second compound 0.316 µM, first compound 0.01 µM
[15] = second compound 0.316 µM, first compound 0.0316 µM
[16] = second compound 0.316 µM, first compound 0.1 µM
[17] = second compound 0.316 µM, first compound 0.316 µM
[18] = second compound 0.316 µM, first compound 1 µM
[19] = second compound 1 µM, first compound 0.00316 µM
[20] = second compound 1 µM, first compound 0.01 µM
[21] = second compound 1 µM, first compound 0.0316 µM
[22] = second compound 1 µM, first compound 0.1 µM
[23] = second compound 1 µM, first compound 0.316 µM
[24] = second compound 1 µM, first compound 1 µM
[25] = second compound 3.16 µM, first compound 0.0316 µM
[26] = second compound 3.16 µM, first compound 0.1 µM
[27] = second compound 10 µM, first compound 0.0316 µM
[28] = second compound 10 µM, first compound 0.1 µM
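Also: spheroids exposed to compounds for seven days before viability read.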
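For viability, T/C in this document: luminescence used as a proxy for viable cell amount; percent viability relative to DMSO vehicle control as 100%.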

IC50 (second compound 0.00316 µM): > 1000 nM
IC50 (second compound 0.01 µM): > 1000 nM
IC50 (second compound 0.0316 µM): > 1000 nM
IC50 (second compound 0.1 µM): > 1000 nM
IC50 (second compound 0.316 µM): 772 nM
IC50 (second compound 1 µM): 53.8 nM
SMILES: CCN1CCN(Cc2ccc(Nc3ncc(F)c(-c4cc(F)c5nc(C)n(C(C)C)c5c4)n3)nc2)CC1 + CC(Nc1ccc2c(c1)OCCn1cc(N3C(=O)OCC3C(F)F)nc1-2)C(N)=O
viability, T/C (second compound 0.00316 µM, first compound 0.00316 µM): 97.1%
viability, T/C (second compound 0.00316 µM, first compound 0.01 µM): 93.1%
viability, T/C (second compound 0.00316 µM, first compound 0.0316 µM): 93.2%
viability, T/C (second compound 0.00316 µM, first compound 0.1 µM): 84.8%
viability, T/C (second compound 0.00316 µM, first compound 0.316 µM): 76.9%
viability, T/C (second compound 0.00316 µM, first compound 1 µM): 78.3%
viability, T/C (second compound 0.01 µM, first compound 0.00316 µM): 98.5%
viability, T/C (second compound 0.01 µM, first compound 0.01 µM): 98.9%
viability, T/C (second compound 0.01 µM, first compound 0.0316 µM): 83.2%
viability, T/C (second compound 0.01 µM, first compound 0.1 µM): 75.8%
viability, T/C (second compound 0.01 µM, first compound 0.316 µM): 82.9%
viability, T/C (second compound 0.01 µM, first compound 1 µM): 82.8%
viability, T/C [1]: 94.9%
viability, T/C [2]: 83.2%
viability, T/C [3]: 78.9%
viability, T/C [4]: 69.8%
viability, T/C [5]: 79.8%
viability, T/C [6]: 67.5%
viability, T/C [7]: 78.6%
viability, T/C [8]: 75.1%
viability, T/C [9]: 74.7%
viability, T/C [10]: 66.1%
viability, T/C [11]: 61.3%
viability, T/C [12]: 65.8%
viability, T/C [13]: 71.3%
viability, T/C [14]: 73.9%
viability, T/C [15]: 64.3%
viability, T/C [16]: 54.7%
viability, T/C [17]: 57.3%
viability, T/C [18]: 48.4%
viability, T/C [19]: 53.7%
viability, T/C [20]: 53.2%
viability, T/C [21]: 52.6%
viability, T/C [22]: 47.4%
viability, T/C [23]: 46.4%
viability, T/C [24]: 45%

IC50 (second compound 0.0316 µM): 6450 nM
IC50 (second compound 0.1 µM): 6700 nM
IC50 (second compound 0.316 µM): 5830 nM
IC50 (second compound 1 µM): 4920 nM
IC50 (second compound 3.16 µM): 3620 nM
IC50 (second compound 10 µM): < 31.6 nM
SMILES: CC1(C)CCC(Nc2ncc(C(F)(F)F)c(-c3c[nH]c4c(P(C)(C)=O)c(C#N)ccc34)n2)CN1 (stereo unspecified) + Cc1nc(NC(=O)N2CCCC2C(N)=O)sc1-c1ccnc(C(C)(C)C(F)(F)F)c1
viability, T/C [3]: 103%
viability, T/C [4]: 86.8%
viability, T/C [5]: 75.6%
viability, T/C [6]: 90.1%
viability, T/C (second compound 0.0316 µM, first compound 3.16 µM): 92.2%
viability, T/C (second compound 0.0316 µM, first compound 10 µM): 25.6%
viability, T/C [9]: 89.9%
viability, T/C [10]: 74.1%
viability, T/C [11]: 88.2%
viability, T/C [12]: 85%
viability, T/C (second compound 0.1 µM, first compound 3.16 µM): 91.3%
viability, T/C (second compound 0.1 µM, first compound 10 µM): 30.8%
viability, T/C [15]: 75.5%
viability, T/C [16]: 78%
viability, T/C [17]: 85.8%
viability, T/C [18]: 79%
viability, T/C (second compound 0.316 µM, first compound 3.16 µM): 80.2%
viability, T/C (second compound 0.316 µM, first compound 10 µM): 24%
viability, T/C [21]: 75%
viability, T/C [22]: 70%
viability, T/C [23]: 70.8%
viability, T/C [24]: 69.7%
viability, T/C (second compound 1 µM, first compound 3.16 µM): 68.1%
viability, T/C (second compound 1 µM, first compound 10 µM): 21.4%
viability, T/C [25]: 62.5%
viability, T/C [26]: 57.9%
viability, T/C (second compound 3.16 µM, first compound 0.316 µM): 55.9%
viability, T/C (second compound 3.16 µM, first compound 1 µM): 58.7%
viability, T/C (second compound 3.16 µM, first compound 3.16 µM): 55%
viability, T/C (second compound 3.16 µM, first compound 10 µM): 13.1%
viability, T/C [27]: 41.9%
viability, T/C [28]: 46%
viability, T/C (second compound 10 µM, first compound 0.316 µM): 41.7%
viability, T/C (second compound 10 µM, first compound 1 µM): 38.8%
viability, T/C (second compound 10 µM, first compound 3.16 µM): 36.9%
viability, T/C (second compound 10 µM, first compound 10 µM): 10.2%

IC50 (second compound 0.0316 µM): > 100 nM
IC50 (second compound 0.1 µM): > 100 nM
IC50 (second compound 0.316 µM): > 100 nM
IC50 (second compound 1 µM): > 100 nM
IC50 (second compound 3.16 µM): > 100 nM
IC50 (second compound 10 µM): > 100 nM
SMILES: CC(=O)c1c(C)c2cnc(Nc3ccc(N4CCNCC4)cn3)nc2n(C2CCCC2)c1=O + CC(Nc1ncnc2nc[nH]c12)c1cc2cccc(Cl)c2c(=O)n1-c1ccccc1
viability, T/C (second compound 0.0316 µM, first compound 0.000316 µM): 104%
viability, T/C (second compound 0.0316 µM, first compound 0.001 µM): 96.3%
viability, T/C [1]: 93.2%
viability, T/C [2]: 92%
viability, T/C [3]: 99.2%
viability, T/C [4]: 84.2%
viability, T/C (second compound 0.1 µM, first compound 0.000316 µM): 96.4%
viability, T/C (second compound 0.1 µM, first compound 0.001 µM): 97.5%
viability, T/C [7]: 101%
viability, T/C [8]: 102%
viability, T/C [9]: 107%
viability, T/C [10]: 90.1%
viability, T/C (second compound 0.316 µM, first compound 0.000316 µM): 93.8%
viability, T/C (second compound 0.316 µM, first compound 0.001 µM): 105%
viability, T/C [13]: 102%
viability, T/C [14]: 97.7%
viability, T/C [15]: 108%
viability, T/C [16]: 86.7%
viability, T/C (second compound 1 µM, first compound 0.000316 µM): 106%
viability, T/C (second compound 1 µM, first compound 0.001 µM): 102%
viability, T/C [19]: 90.3%
viability, T/C [20]: 95.2%
viability, T/C [21]: 92.4%
viability, T/C [22]: 89.8%
viability, T/C (second compound 3.16 µM, first compound 0.000316 µM): 102%
viability, T/C (second compound 3.16 µM, first compound 0.001 µM): 91.3%
viability, T/C (second compound 3.16 µM, first compound 0.00316 µM): 88.4%
viability, T/C (second compound 3.16 µM, first compound 0.01 µM): 95.9%
viability, T/C [25]: 103%
viability, T/C [26]: 84.5%
viability, T/C (second compound 10 µM, first compound 0.000316 µM): 87.5%
viability, T/C (second compound 10 µM, first compound 0.001 µM): 84.4%
viability, T/C (second compound 10 µM, first compound 0.00316 µM): 88.2%
viability, T/C (second compound 10 µM, first compound 0.01 µM): 86.7%
viability, T/C [27]: 104%
viability, T/C [28]: 72.7%
